The assay concerns the target 5-lipoxygenase (Cavia porcellus). The experiment in a line: In vitro 5-lipoxygenase inhibitory activity against A-23187-stimulated conversion of [14C]AA to LTB4 in guinea pig peritoneal polymorphonuclear leukocytes.

Regarding `NC(=O)N(O)C[C@H]1COc2ccc(Oc3ccc(F)cc3)cc2O1` [(2S)-2-[[N-(aminocarbonyl)-N-hydroxyamino]methyl]-7-(4-fluorophenoxy)-1,4-benzodioxan], the IC50 was 97 nM.

Values taken from BindingDB's records for doi:10.1021/jm00001a012 (Ciba-Geigy, 1995).
